The results in this text go back to ChEMBL document CHEMBL4613317, “Substituted Naphthalenediimide Compounds Bind Selectively to Two Human Quadruplex Structures with Parallel Topology” (ACS Med Chem Lett, 2020).

Activity calls are given as the source filed them. The calls are words filed in the database; no cut-off is given here. A value given as a limit tells only on which side of the number the result lay.

Assay [1] concerns Quadruplex DNA. As to the kind of experiment: Induction of (3+1) hybrid structural changes of human HTR G4-quadruplex DNA to antiparallel structure at 20 uM by circular dichroism analysis. Type of assay: nucleic-acid assay.
Assay [2] concerns Quadruplex DNA. The assay is described as follows: Induction of parallel human TERT G4-quadruplex DNA structural changes up to 20 uM by circular dichroism analysis. The class given is nucleic-acid assay.
The test system of assay [3] is Quadruplex DNA. The assay is described as follows: Binding affinity to human TERT G4-quadruplex DNA assessed as change in melting temperature by UV-visible spectrophotometry. Type of assay: nucleic-acid assay.
Assay [4] has as its system Quadruplex DNA. The assay is described as follows: Binding affinity to human HTR G4-quadruplex DNA assessed as change in melting temperature by UV-visible spectrophotometry. Type of assay: nucleic-acid assay.
In assay [5] the test system is DNA. The assay is described as follows: Binding affinity to human TERT hairpin duplex DNA assessed as change in melting temperature by UV-visible spectrophotometry. Type of assay: nucleic-acid assay.
The target in assay [6] is Quadruplex DNA. The assay is described as follows: Binding affinity to biotin-labeled human TERT G4-quadruplex DNA assessed as dissociation equilibrium binding constant by SPR analysis. Type of assay: nucleic-acid assay.
For assay [7], the target named is Quadruplex DNA. As to the kind of experiment: Binding affinity to biotin-labeled human HTR G4-quadruplex DNA assessed as dissociation equilibrium binding constant by SPR analysis. Type of assay: nucleic-acid assay.
The target in assay [8] is Quadruplex DNA. As to the kind of experiment: Binding affinity to biotin-labeled human TERRA G4-quadruplex RNA assessed as dissociation equilibrium binding constant by SPR analysis. Type of assay: nucleic-acid assay.
In assay [9] the target is Quadruplex DNA. As to the kind of experiment: Binding affinity to human TERT G4-quadruplex DNA assessed as dissociation equilibrium binding constant by intrinsic fluorescence titration based fluorescence spectrophotometry. Type of assay: nucleic-acid assay.
Assay [10] deals with Quadruplex DNA. As to the kind of experiment: Binding affinity to human HTR G4-quadruplex DNA assessed as dissociation equilibrium binding constant by intrinsic fluorescence titration based fluorescence spectrophotometry. Type of assay: nucleic-acid assay.
The target of assay [11] is Quadruplex DNA. As to the kind of experiment: Binding affinity to human TERRA G4-quadruplex RNA assessed as dissociation equilibrium binding constant by fluorescence anisotropy titration based fluorescence spectrophotometry. The class given is nucleic-acid assay.
Assay [12] concerns Quadruplex DNA. The assay is described as follows: Binding affinity to G-quartet terminal of human TERT G4-quadruplex DNA with parallel topology up to 20 uM by circular dichroism analysis. Type of assay: nucleic-acid assay.
In assay [13] the test system is Quadruplex DNA. The assay is described as follows: Binding affinity to end quartet of (3+1) hybrid structure of human HTR G4-quadruplex DNA up to 20 uM by circular dichroism analysis. The class given is nucleic-acid assay.
The subject of assay [14] is Quadruplex DNA. As to the kind of experiment: Binding affinity to G-quartet terminal of human TERRA G4-quadruplex RNA with parallel topology up to 20 uM by circular dichroism analysis. Type of assay: nucleic-acid assay.
In assay [15] the target is DNA. The assay is described as follows: Binding affinity to biotin-labeled duplex DNA AAAGAACTTT (unknown origin) assessed as dissociation equilibrium binding constant by SPR analysis. Type of assay: nucleic-acid assay.
Assay [16] deals with Quadruplex DNA. The assay is described as follows: Induction of parallel human TERRA G4-quadruplex RNA structural changes up to 20 uM by circular dichroism analysis. The class given is nucleic-acid assay.
For assay [17], the species on record is Homo sapiens. As to the kind of experiment: Selectivity index, ratio of Kd for human HTR G4-quadruplex DNA to Kd for human TERT G4-quadruplex DNA by intrinsic fluorescence titration based fluorescence spectrophotometry.
The species entered for assay [18] is Homo sapiens. As to the kind of experiment: Selectivity index, ratio of Kd for biotin-labeled human HTR G4-quadruplex DNA to Kd for biotin-labeled human TERRA G4-quadruplex RNA by SPR analysis.
The species named for assay [19] is Homo sapiens. The assay is described as follows: Selectivity index, ratio of Kd for human HTR G4-quadruplex DNA to Kd for human TERRA G4-quadruplex RNA by fluorescence spectrophotometry.
Assay [20] is filed under the species Homo sapiens. As to the kind of experiment: Selectivity index, ratio of Kd for biotin-labeled human HTR G4-quadruplex DNA to Kd for biotin-labeled human TERT G4-quadruplex DNA by SPR analysis.

Regarding `O=C1c2cc(-c3ccc(CN4CCCC4)cc3)c3c4c(cc(NCCN5CCCC5)c(c24)C(=O)N1CCCN1CCOCC1)C(=O)N(CCCN1CCOCC1)C3=O` [QN-302], the result in [1], in assay [12], in assay [13] and in assay [14] was Active. The outcome in assay [2] and in [16] was inactive. Further, the results for the ΔTm in assay [3], in [4] and in assay [5] were 18 °C, 10 °C and 2 °C, respectively. Moreover, the Kd in assay [6] was 4 nM; in [7], 28 nM; in assay [8] it was 3 nM; in assay [9] it was 4 nM; in [10], 29 nM; in assay [11], 2 nM. In [15], the Kd is above 100 nM. Besides, the Selectivity Index in assay [17], in assay [18] and in [19] was 5 throughout.

In the case of `O=C1c2ccc3c4c(c(NCCN5CCCC5)cc(c24)C(=O)N1CCCN1CCOCC1)C(=O)N(CCCN1CCOCC1)C3=O`, the outcome in assay [1], in assay [12], in assay [13] and in assay [14] was Active. The result in assay [2] and in assay [16] was inactive. Also, the ΔTm in assay [3] came out at 13 °C; in [4] it was 5 °C; in assay [5] it was 2 °C. In addition, the Kd is 12 nM in assay [6]; 82 nM in assay [7]; 4 nM in assay [8]; 16 nM in assay [9]; 94 nM in [10]; 3 nM in assay [11]. For the same molecule, the Kd in assay [15] is above 100 nM. The Selectivity Index came out at 7 in [20], 5 in [18] and 5 in [19].

For `CN1CCN(CCCNc2cc3c4c(c(NCCCN5CCN(C)CC5)cc5c4c2C(=O)N(CCCN2CCOCC2)C5=O)C(=O)N(CCCN2CCOCC2)C3=O)CC1`, the result in [1], in assay [12], in assay [13] and in assay [14] was Active. In addition, the result in [2] and in assay [16] was inactive. In addition, the ΔTm in [4] was 11 °C; in [5], below 2 °C. Further, the dissociation constant Kd was determined as 2 nM in assay [6]; 5 nM in assay [7]; 3 nM in assay [8]; 4 nM in [9]; 10 nM in [10]; 2 nM in assay [11].
